Experiments:
[1] = target: MET kinase (c-MET), kinase domain of human Met (Homo sapiens, UniProt P08581); assay: MET luminescence-based enzyme assay (Kinase-Glo)
GTL16 = GTL16 cell assay (EC50); type: cell-based; conditions: Homo sapiens, GTL 16
Experimental: Compounds were tested in the following assays in duplicate. 96-well XTT assay: Cells were grown in growth media containing various concentrations of compounds (duplicates) on a 96-well flat bottom plate for 72 hours at 37° C. in 5% CO2. The starting cell number was 5000 cells per well and volume was 120 μl. At the end of the 72-hour incubation, 40 μl of XTT labeling mixture (50:1 solution of sodium 3′-[1-(phenylaminocarbonyl)-3,4-tetrazolium]-bis(4-methoxy-6-nitro) benzene sulfonic acid hydrate and Electron-coupling reagent: PMS (N-methyl dibenzopyrazine methyl sulfate) were added to each well of the plate. After an additional 2-6 hours […] with a spectrophotometer.

Sequence of MET kinase (c-MET), kinase domain of human Met (P08581 1078-1345 limits assumed): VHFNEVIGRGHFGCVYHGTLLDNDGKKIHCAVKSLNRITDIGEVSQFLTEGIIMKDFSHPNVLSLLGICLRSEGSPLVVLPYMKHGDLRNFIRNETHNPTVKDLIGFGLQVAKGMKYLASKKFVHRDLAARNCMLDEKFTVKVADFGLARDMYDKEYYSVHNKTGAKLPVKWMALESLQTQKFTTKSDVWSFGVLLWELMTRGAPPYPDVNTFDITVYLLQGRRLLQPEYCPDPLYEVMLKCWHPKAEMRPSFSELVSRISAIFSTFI

## Cc1ccc2nnc(Cc3ccc4ncc(-c5ccc[nH]5)cc4c3)n2n1 [compound 138]
[1]
  IC50: < 100 nM
GTL16; Table 2
  EC50: 1000 to 10000 nM

## Cc1ccc2nnc(Cc3ccc4ncc(-c5cnn(C6(C(=O)O)CCC6)c5)cc4c3)n2n1 [compound 164]
[1]
  IC50: < 100 nM
GTL16; Table 2
  EC50: 1000 to 10000 nM

## c1ccc(-c2ccc3nnc(Cc4ccc5ncsc5c4)n3n2)cc1 [compound 43]
[1]
  IC50: 100 to 1000 nM
GTL16; Table 1
  EC50: 100 to 1000 nM

## O=S(=O)(c1ccc(-c2ccc3nnc(Cc4ccc5ncccc5c4)n3n2)cc1)N1CCCC1 [compound 2]
[1]
  IC50: 100 to 1000 nM
GTL16; Table 1
  EC50: 100 to 1000 nM

## CCNC(=O)c1cccc(-c2ccc3nnc(Cc4ccc5ncccc5c4)n3n2)c1 [compound 47]
[1]
  IC50: < 100 nM
GTL16; Table 1
  EC50: 100 to 1000 nM

## CS(=O)(=O)c1cccc(-c2ccc3nnc(Cc4ccc5ncsc5c4)n3n2)c1 [compound 102]
[1]
  IC50: < 100 nM
GTL16; Table 1
  EC50: 100 to 1000 nM

## Cc1ccc2nnc(Cc3ccc4ncc(-c5cnn(CCC#N)c5)cc4c3)n2n1 [compound 148]
[1]
  IC50: < 100 nM
GTL16; Table 2
  EC50: < 100 nM

## Cn1cc(-c2cnc3ccc(Cc4nnc5cccnn45)cc3c2)cn1 [compound 139]
[1]
  IC50: < 100 nM
GTL16; Table 2
  EC50: < 100 nM

## CCc1ccc2nnc(Cc3c(F)cc4ncc(-c5cnn(C)c5)cc4c3F)n2n1 [compound 166, 6-(6-Ethyl-[1,2,4]triazolo[4,3-b]pyridazin-3-ylmethyl)-5,7-difluoro-3-(1-methyl-1H-pyrazol-4-yl)-quinoline]
[1]
  IC50: < 100 nM
GTL16; Table 2
  EC50: < 100 nM

## CNC(=O)c1cc(F)cc(-c2ccc3nnc(Cc4ccc5ncccc5c4)n3n2)c1 [compound 56]
[1]
  IC50: 100 to 1000 nM
GTL16; Table 1
  EC50: 100 to 1000 nM

## CNS(=O)(=O)c1ccc(-c2ccc3nnc(Cc4ccc5ncccc5c4)n3n2)cc1 [compound 37]
[1]
  IC50: 100 to 1000 nM
GTL16; Table 1
  EC50: < 100 nM

## O=C(c1ccc(-c2ccc3nnc(Cc4ccc5ncccc5c4)n3n2)cc1)N1CCOCC1 [compound 23]
[1]
  IC50: 100 to 1000 nM
GTL16; Table 1
  EC50: 100 to 1000 nM

## Cn1cc(-c2cnc3ccc(Cc4nnc5ccc(-c6cnn(C)c6)nn45)cc3c2)cn1 [compound 141]
[1]
  IC50: < 100 nM
GTL16; Table 2
  EC50: < 100 nM

## Cn1cc(-c2cnc3ccc(Cc4nnc5nccnn45)cc3c2)cn1 [compound 179, 3-(1-Methyl-1H-pyrazol-4-yl)-6-[1,2,4]triazolo[4,3-b][1,2,4]triazin-3-ylmethyl-quinoline]
[1]
  IC50: < 100 nM
GTL16; Table 2
  EC50: < 100 nM

## Cn1cc(-c2cnc3cc(F)c(Cc4nnc5cccnn45)c(F)c3c2)cn1 [compound 174]
[1]
  IC50: < 100 nM
GTL16; Table 2
  EC50: 100 to 1000 nM

## CNC(=O)c1ccc(-c2ccc3nnc(C(C)c4ccc5ncsc5c4)n3n2)cc1F (stereo not shown) [compound 82]
[1]
  IC50: < 100 nM
GTL16; Table 1
  EC50: < 100 nM

## Cc1ccc2nnc(Cc3ccc4ncc(-c5cnn(CC6CN(S(C)(=O)=O)C6)c5)cc4c3)n2n1 [compound 172, 3-[1-(1-Methanesulfonyl-azetidin-3-ylmethyl)-1H-pyrazol-4-yl]-6-(6-methyl-[1,2,4]triazolo[4,3-b]pyridazin-3-ylmethyl)-quinoline]
[1]
  IC50: < 100 nM
GTL16; Table 2
  EC50: 100 to 1000 nM

## CNC(=O)c1ccc(-c2ccc3nnc(Cc4ccc5ncsc5c4)n3n2)cc1F [compound 101]
[1]
  IC50: < 100 nM
GTL16; Table 1
  EC50: 100 to 1000 nM

## COc1cccc(Oc2ccc3nnc(Cc4ccc5ncccc5c4)n3n2)c1 [compound 9]
[1]
  IC50: 100 to 1000 nM
GTL16; Table 1
  EC50: 100 to 1000 nM

## CC(c1ccc2ncsc2c1)c1nnc2ccc(-c3cccc(C#N)c3)nn12 (stereo not shown) [compound 81]
[1]
  IC50: < 100 nM
GTL16; Table 1
  EC50: < 100 nM

## Cc1ccc2nnc(Cc3ccc4ncc(-c5cnn(C6CCNCC6)c5)cc4c3)n2n1 [compound 126]
[1]
  IC50: < 100 nM
GTL16; Table 2
  EC50: < 100 nM

## NC(=O)c1ccc(Oc2ccc3nnc(Cc4ccc5ncccc5c4)n3n2)cc1 [compound 11]
[1]
  IC50: 1000 to 10000 nM
GTL16; Table 1
  EC50: 10000 to 50000 nM

## CN(C)c1cccc(-c2ccc3nnc(Cc4ccc5ncccc5c4)n3n2)c1 [compound 67]
[1]
  IC50: 100 to 1000 nM
GTL16; Table 1
  EC50: 100 to 1000 nM
